# Results from a melting point compilation (Tetko et al.).
# Settings: a range is the spread between reports
row,melting point [°C],Compound
1,84 to 88,Oc1ccc(NCc2ccccc2)cc1
2,123 to 124,O=C(O)CCCc1c[nH]c2ccccc12
3,154 to 156,OC1c2ccccc2-c2ccccc21
4,167 to 168,Cc1c(C(=O)O)cnn1-c1ccccc1
5,95 to 96,O=C(O)Cc1ccccc1Cl
6,30.5 to 31,CC=CC=CCO
7,-64 to -63.6,CCCc1ccc(C)cc1
8,44 to 45,CCCCS(=O)(=O)CCCC
9,110,CC(=O)N[C@@H](CS)C(=O)O
10,121 to 125,CC(=O)Oc1ccc(OC(C)=O)cc1
11,245 to 247,O=Cc1ccc(C(=O)O)cc1
12,105 to 107,CCCCC1C(=O)N(c2ccccc2)N(c2ccccc2)C1=O
13,-5 to -4.5,CNCCO
14,81 to 82,CCCCCCCCCCCCCCCCCCCCCCCCCCCCCCCCCCCCCCCC
15,101 to 103,CCCCCCCCOc1ccc(C(=O)O)cc1
16,11 to 11.5,C=CCCCCCCCCCCCCCCC
17,141 to 142,O=C(O)c1cccc([N+](=O)[O-])c1
18,-177,CC1CC1
19,73 to 75.5,COC(=O)c1cc2ccccc2cc1O
20,188 to 189,Nc1ccc(C(=O)O)cc1
21,88 to 89,CC(=O)Oc1ccc(-c2ccccc2)cc1
22,10 to 12.4,c1ccc(Cc2ccncc2)cc1
23,20 to 22,O=Cc1ccccc1Br
24,27 to 28,N#CCc1cccc(Br)c1
25,165,CS(=O)(=O)c1ccc(C(O)C(CO)NC(=O)C(Cl)Cl)cc1 (stereo not given)

row,melting point [°C],Compound
1,43 to 47,CCc1ccc(O)cc1
2,79 to 83,O=C(Oc1ccccc1)Oc1ccccc1
3,-107,CC(C)CC(C)(C)C
4,164 to 166,CC(C)(C)c1ccc(C(=O)O)cc1
5,-30 to -29.5,CCC(C)=NO
6,104 to 108,O=Cc1cccc(O)c1
7,80 to 83,O=C1C(Br)=CC(=NCl)C=C1Br
8,-4 to -3.5,CCCCCCC(O)CCCC (stereo not given)
9,158,Cc1ccc(-c2cc(C(F)(F)F)nn2-c2ccc(S(N)(=O)=O)cc2)cc1
10,53 to 55,c1cnccn1
11,147 to 148,NC(=O)c1c(F)c(F)c(F)c(F)c1F
12,116 to 117,O=C(O)Cc1ccc(Br)cc1
13,-33.1 to -33,CCC(CC)(CC)CC
14,119 to 121,O=[N+]([O-])c1ccc(O)c(F)c1
15,135 to 140,COc1ccc(C(=O)c2ccc(OC)cc2O)c(O)c1
16,34 to 35,Clc1ccc(Cl)c(Br)c1
17,229 to 230,CCn1cc(C(=O)O)c(=O)c2ccc(C)nc21
18,21.5 to 25,C[C@H](O)CN
19,34 to 35,COc1cc(Cl)cc(OC)c1
20,189 to 190,CC(CO)(CO)C(=O)O
21,110 to 111,CC(N)(CO)CO
22,176 to 177,Nc1ccc(S(=O)(=O)c2ccc(N)cc2)cc1
23,-116 to -115,C=COCC
24,118 to 120,Cc1c(O)cccc1O
25,50 to 53,COc1ccc(I)cc1

row,melting point [°C],Compound
1,26 to 28.5,COc1ccc(Cl)cc1Cl
2,53 to 55,Cc1ccc([N+](=O)[O-])c(O)c1
3,69 to 69.4,CCCCCCCCCCCCCCCCCCC(=O)O
4,92 to 94,CC(=O)Nc1ccccc1[N+](=O)[O-]
5,256 to 260,CC(=O)Nc1ccc(C(=O)O)cc1
6,5.7 to 6,CCCCCCCCCCCCCCCC(C)C
7,255 to 259,CC12CCC3c4ccc(O)cc4CCC3C1CCC2=O (stereo not given)
8,-134,CC=C(C)C
9,53 to 55,COc1cccc([N+](=O)[O-])c1C
10,-59.5 to -57.8,CC(C)(C)c1ccccc1
11,28 to 28.6,CCCCCCCCCCC(=O)O
12,-27.2 to -27,Cc1cccc(I)c1
13,55 to 56,Cc1cc(C)c(S(=O)(=O)Cl)c(C)c1
14,93 to 94,O=C(C[N+](=O)[O-])Nc1ccccc1
15,50 to 52,C=C1C2CCC(C2)C1(C)C (stereo not given)
16,60 to 61,c1ccc(P(CCCP(c2ccccc2)c2ccccc2)c2ccccc2)cc1
17,75 to 76,O=S(=O)(Cl)c1ccc(Br)cc1
18,114 to 115,COc1cc(C(C)=O)ccc1O
19,36 to 37.5,N#Cc1cccc2ccccc12
20,-106,CCC1CCCC1C (stereo not given)
21,88 to 92,CCOC(=O)c1ccc(N)cc1
22,-16.3 to -16,CCCCCCCCCCI
23,138 to 139,Oc1nc2ccccc2s1
24,92 to 94,CCOC(=O)c1cc([N+](=O)[O-])cc([N+](=O)[O-])c1
25,-10 to -9.8,CCC(C)(C)C(C)(C)C

row,melting point [°C],Compound
1,46 to 47.5,Cc1ccc(C(=O)c2ccccc2)cc1C
2,65 to 68,Cc1cccc(O)c1O
3,-47 to -43.1,CCCCCCCC(=O)OCC
4,96 to 97,N#Cc1cc(Cl)ccc1N
5,156 to 157,O=[N+]([O-])c1ccc2c(c1)Cc1ccccc1-2
6,-111,CC(F)(F)F
7,-80.3 to -80,CCCCCCC(C)C
8,22.5 to 23,Clc1cc(Cl)nc(Cl)n1
9,40.5 to 41,COc1cc(CCC(C)=O)ccc1O
10,104 to 105,O=C(O)COc1ccc(F)cc1
11,128 to 129,CC(C)C(N)=O
12,22 to 26,C[Si](C)(C)C#C[Si](C)(C)C
13,36 to 37,CC1(O)CCCC1
14,28 to 28.2,CCCCCCCCCCCCCCCCCCBr
15,43 to 46.5,O=Cc1ccc[nH]1
16,56 to 57.7,C#CCCC(=O)O
17,20.5 to 24,C=CCn1c(=O)n(CC=C)c(=O)n(CC=C)c1=O
18,-0.1 to 0.5,CCCCCCC=CCCCCCCCC(=O)O
19,112 to 114,Ic1ccc(-c2ccccc2)cc1
20,68 to 71,O=Cc1ccc2ccccc2n1
21,61.5 to 62,COc1ccc(C(=O)c2ccccc2)cc1
22,-102,CC(C)C(C)(C)C(C)C
23,13.3 to 14,Brc1cnc2ccccc2c1
24,10 to 10.5,CC(=O)c1cc(C)c(C)cc1C
25,88 to 91,COc1ccc(-c2ccccc2)cc1

row,melting point [°C],Compound
1,-127 to -126,CC1CCCCC1
2,1 to 2,Cc1c(N)cccc1Cl
3,-23.4,c1cc[nH]c1
4,-126,CCCC(C)(C)CC
5,77 to 78,O=C(O)Cc1cccc(C(F)(F)F)c1
6,113 to 114,CCC(C(=O)O)C(=O)O
7,68 to 69,CCn1c2ccccc2c2ccccc21
8,104 to 105,C=CCC(C(=O)O)C(=O)O
9,148 to 149,CC(C)CCCC(C)C1CCC2C3CC=C4CC(O)CCC4(C)C3CCC12C (stereo not given)
10,25 to 26,CC(C)(C)O
11,32 to 36,CC(=O)c1cccc(C(C)=O)c1
12,37.2 to 38,O=C=Nc1ccc(Cc2ccc(N=C=O)cc2)cc1
13,-138 to -135,CC=C(C)CC
14,10 to 10.7,BrCCCOc1ccccc1
15,-1 to 2,Cc1cc(C)c(Br)c(C)c1
16,49 to 50,OCc1ccccc1-c1ccccc1
17,21 to 25.9,OC1CCCCC1
18,100 to 102,c1ccc2c(c1)Cc1ccccc1O2
19,-115,CC(C)CC1CCCC1
20,-117,CCCC1CCCC1
21,-30 to -29,Cc1cnccn1
22,208 to 210,O=C1OCc2c(Cl)c(Cl)c(Cl)c(Cl)c21
23,-34 to -29,Nc1ccccc1C(F)(F)F
24,204 to 206,O=C(O)c1cccc(O)c1O

row,Compound,melting point [°C]
1,N#Cc1cccc(C#N)c1,161 to 162
2,Cc1ccc(C)c(N)c1,12 to 15.5
3,O=C1c2ccccc2-c2cccc3cccc1c23,170 to 173
4,Cc1ccc([N+](=O)[O-])cc1C,29 to 31
5,Cc1ccc([N+](=O)[O-])cc1,51 to 54
6,CC(F)(F)Cl,-131
7,N#Cc1ccccn1,27 to 29
8,CC(=O)CCC(C)=O,-7 to -5.5
9,Cc1cccc(N)c1C,2 to 3
10,Clc1ccccc1Cl,-18 to -16.7
11,C/C=C/c1ccccc1,-29.3 to -27.1
12,Nc1c(Cl)c(Cl)c(Cl)c(Cl)c1Cl,232 to 235
13,CCC(C)(C)O,-12 to -8
14,CCCCCCC#N,-64 to -63
15,CNC1=Nc2ccc(Cl)cc2C(c2ccccc2)=[N+]([O-])C1,236
16,O=[N+]([O-])c1cc(Cl)c(Cl)c(Cl)c1,70 to 72.5
17,Nc1c(Cl)cc([N+](=O)[O-])cc1Cl,189 to 191
18,Nc1ccc(Cl)cc1[N+](=O)[O-],116 to 118
19,CC12CCC3C(CCC4(C)CC5(CCC34C)OCCO5)C1CCC2=O (stereo not given),158 to 159
20,CC(C)C1(C)N=C(c2ncccc2C(=O)O)NC1=O (stereo not given),171 to 172
21,CCOC(=O)C(O)(c1ccccc1)c1ccccc1,30 to 34

row,Compound,melting point [°C]
1,OCCCCO,16 to 20.4
2,ClCC(Cl)(Cl)Cl,-70.2 to -70
3,c1ccc2cc3c(cc2c1)-c1cccc2cccc-3c12,216 to 217
4,C1=Cc2cccc3cccc1c23,91 to 92.5
5,CC(=O)c1ccc(C#N)cc1,57 to 59
6,CC1OC(C)OC(C)O1 (stereo not given),12 to 12.6
7,Clc1ccc(Br)cc1,65 to 68
8,O=[N+]([O-])c1ccc(Cl)c([N+](=O)[O-])c1,50 to 53
9,Cc1ccc(O)cc1Cl,52 to 55.5
10,CCOc1cc(C=O)ccc1O,77 to 77.5
11,Brc1ccc(-c2ccccc2)cc1,90 to 91.5
12,Cc1ccc2c(c1N)C(=O)c1ccccc1C2=O,205 to 206
13,Brc1ccc2ccccc2c1,54 to 59
14,O=C(O)C(Cl)(Cl)Cl,56 to 57.5
15,ClCc1cccc(CCl)c1,34.2 to 36
16,Cc1ccc([N+](=O)[O-])cc1N,106 to 108
17,OCCSSCCO,25 to 26
18,CCOc1ccc(C(C)(C)COCc2cccc(Oc3ccccc3)c2)cc1,36 to 37
19,O=C(O)CCl,61.5 to 63
20,C=CC(=O)OCCCC,-64.6 to -64
